# Laboratory results as given in patent US8975401B2, “Quinazoline based EGFR inhibitors containing a zinc binding moiety” (Curis, Inc., priority 2006, dated 2015).
# Legend:
# [1] = target: T1, human EGFR (His672-Ala1210) (Homo sapiens, UniProt P00533); assay: HTScan EGF Receptor Kinase Assay; type: biochemical; conditions: FIG. 1
# T1 construct: human EGFR (His672-Ala1210); GST (N); purchased Cell Signaling Technologies; host or cells: baculovirus expression system
# Experimental: The ability of compounds to inhibit receptor kinase (EGFR) activity was assayed using HTSCAN™ EGF Receptor Kinase Assay Kits (Cell Signaling Technologies, Danvers, Mass.). […] The protein was purified by one-step affinity chromatography using glutathione-agarose.
# Immediately transfer enzyme from −80° C. to ice. Allowed enzyme to thaw on ice. […] Returned immediately to ice. […] Incubated reaction plate at room temperature for 30 minutes. […] Added 100 μl/well primary antibody. Incubated at room temperature for 60 minutes. […] Added 100 μl/well diluted antibody. Incubated at room temperature for 30 minutes. […] Incubated at room temperature for 5 minutes.
# [2] = system: HDAC in MDA-MB-468 breast cancer cell line; assay: Inhibition of HDAC in cells (Ac-H4, Ac-H3 accumulation), FIG. 2; type: cell-based; conditions: MDA-MB-468, FIG. 2
# [3] = system: EGFR in MDA-MB-468 breast cancer cell line; assay: Inhibition of EGFR phosphorylation in cells, FIG. 2; type: cell-based; conditions: MDA-MB-468, FIG. 2
# Experimental: (b) An In Vitro Assay which Determines the Ability a Test Compound to Inhibit the EGF-Stimulated EGFR Phosphorylation.
# Allowed A431 cell growth in a T75 flask using standard tissue culture procedures until cells reach near confluency (˜1.5×10^7) cells; D-MEM, 10% FBS). Under sterile conditions dispensed 100 μl of the cell suspension per well in 96-well microplates (x cells plated per well). Incubated cells and monitor cell density until confluency is achieved with well-to-well consistency; approximately three days. Removed complete media from plate wells by aspiration or manual displacement. Replaced media with 50 μl of pre-warmed serum free media per well and incubated 4 to 16 hours. Made two fold serial dilutions of inhibitor using pre-warmed D-MEM so that the final concentration of inhibitor range from 10 μM to […]. Removed media from A431 cell plate. Added 100 μl of serial diluted inhibitor into cells and incubate 1 to 2 hours. Removed inhibitor from plate wells by aspiration or manual displacement. Added either serum free media for resting cells (mock) or serum free media with 100 ng/ml EGF. Used 100 μl of resting/activation media per well. Allowed incubation at 37° C. for 7.5 minutes. Removed activation or stimulation media manually or by aspiration. Immediately fixed cells with 4% formaldehyde in 1×PBS. […]
# [4] = system: A549 NSCLC Xenograft; assay: A549 NSCLC xenograft model; type: in vivo, mice; conditions: FIG. 11A, 11B
# Experimental: (§1) A representative protocol for the in vivo experiment is as followed:
# (§2) 1-10×10^6 human cancer cells were implanted subcutaneously to the athymic (nu/nu) mice. When the tumors reached about 100 mm^3 in volume, the mice were treated with the compound by tail vein infusion. Routinely 5 groups (8-12 mice per group) are needed for a typical efficacy study, including one negative control, one positive control, and three testing groups for 3 dose levels of the same compound. Usually a 7-7-5 (on-off-on) regimen was used for one typical study. The tumor size was measured with an electronic caliper and body weight measured with a scale twice weekly. The tumors were removed from euthanized mice at the end of the study. One half of each tumor was frozen in dry ice and stored at −80° C. for PK or Western blot analysis. The other half was fixed with formalin. The fixed tissues were processed, embedded in paraffin and sectioned for immunohistochemistry staining
# [5] = system: HPAC pancreatic cancer cells; assay: HPAC pancreatic cancer xenograft; type: in vivo, mice; conditions: 120 mg/kg in 30% CAPTISOL (iv/ip) daily vs 50 mg/kg erlotinib (po); FIG. 12A
# Experimental: as §1, §2
# [6] = Pharmacokinetic study in rats (plasma); type: in vivo; conditions: 20 and 60 mg/kg iv, hydrochloride salt in 30% CAPTISOL, FIG. 14
# Experimental: Compound was administered via an intravenous (iv) infusion.
# Rat: 20 mg/kg for 5 min i.v. infusion
# Plasma samples were prepared by protein precipitation. An internal standard was added into plasma samples. […] The supernatant was then injected onto LC/MS/MS.
# Samples were compared to standards made in plasma. These standards were prepared by serial dilution.
# [7] = system: cancer cell lines; assay: Anti-proliferative activity in various cancer cell lines (general statements, FIG. 3); type: cell-based; conditions: lung, breast, prostate, colon, pancreas cell lines
# Experimental: Cell Proliferation Assay:
# Cancer cell lines were plated at 5,000 to 10,000 per well in 96-well flatted bottomed plates with various concentration of compounds. The cells were incubated with compounds for 72 hours in the presence of 0.5% of fetal bovine serum. Growth inhibition was accessed by adenosine triphosphate (ATP) content assay using Perkin Elmer ATPlite kit. ATPlite is an ATP monitoring system based on firefly luciferase. Briefly, 25 μl of mammalian cell lysis solution was added to 50 μl of phenol red-free culture medium per well to lyse the cells and stabilize the ATP. 25 μl of substrate solution was then added to the well and subsequently the luminescence was measured.
# [8] = Pharmacokinetic study in mice (plasma, lung, colon); conditions: salt in 30% CAPTISOL
# Experimental: Samples were compared to standards made in plasma. These standards were prepared by serial dilution. An internal standard was added into the plasma with standard.
# Tissues were homogenized in 0.8 ml water.
# T1 sequence (P00533 672-1210): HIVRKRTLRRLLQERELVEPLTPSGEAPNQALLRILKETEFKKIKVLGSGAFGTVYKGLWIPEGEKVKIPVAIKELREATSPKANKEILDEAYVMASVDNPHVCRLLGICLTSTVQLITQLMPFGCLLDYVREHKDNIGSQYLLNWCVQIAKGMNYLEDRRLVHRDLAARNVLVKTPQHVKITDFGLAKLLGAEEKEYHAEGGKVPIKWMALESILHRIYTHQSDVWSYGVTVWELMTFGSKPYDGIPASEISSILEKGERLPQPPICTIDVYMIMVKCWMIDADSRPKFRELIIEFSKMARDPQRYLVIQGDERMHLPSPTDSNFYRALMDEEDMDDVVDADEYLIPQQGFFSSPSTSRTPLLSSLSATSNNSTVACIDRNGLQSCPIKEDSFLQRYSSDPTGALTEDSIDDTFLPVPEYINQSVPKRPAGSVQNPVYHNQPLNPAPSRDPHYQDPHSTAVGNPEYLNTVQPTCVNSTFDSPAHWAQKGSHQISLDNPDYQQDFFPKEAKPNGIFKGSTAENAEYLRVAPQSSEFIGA
compound,measurement,setting,value
"C#Cc1cccc(Nc2ncnc3cc(OC)c(OCCCCCCC(=O)NO)cc23)c1 [Compound 12, 7-(4-(3-ethynylphenylamino)-7-methoxyquinazolin-6-yloxy)-N-hydroxyheptanamide]",activity in EFGR enzyme assay compared with erlotinib,[1],more active than erlotinib and SAHA
same,histone acetylation (Ac-H3/Ac-H4) compared with SAHA,[2],improvement in inhibition of histone acetylation
same,inhibition of EGFR phosphorylation compared with Erlotinib,[3],improvement in inhibition of histone acetylation and EGFR phosphorylation
same,effect on tumor growth / tumor size,[4],attenuated tumor growth
same,attenuation of tumor growth,[5],greater attenuation of tumor growth than either erlotinib (po) or vehicle
same,dose proportionality of plasma concentration,[6],proportional to the dose
same,"anti-proliferative potency compared with SAHA, Erlotinib and their combination",[7],responded better to compound 12 than a combination of erlotinib and SAHA
Citric Acid,IV Tissue,[8],Low
